Read-outs that look alike come from different tables or passages of the source.
Experiments:
[1] = system: wound after doxorubicin SC in swine; test: Pilot study on swine, doxorubicin SC; assay type: in vivo; settings: 3 mg doxorubicin SC, not receiving ICRF-187
Description: (§1) A danish porker weighting approximately 30 kg was used. The animals were fully anesthesized and artificially ventilated during SC injection of 1 ml of anthracycline.

[2] = system: wound after daunorubicin SC in swine; test: Pilot study on swine, daunorubicin SC; assay type: in vivo; settings: 1 ml daunorubicin SC, untreated
Description: as §1

[3] = system: SC daunorubicin induced wounds in mice; settings: for AUC / DW / FW / TTW: Table A, pooled data
Description: The mice were euthanized after healing of all wounds.
The effect of various doses of ICRF-187 was investigated in Example 3.
Comparison of two concentrations of sc daunorubicin were compared with and without simultaneous treatment with ICRF-187 250 mg/kg.
ICRF-187 was administered at the same time as daunorubicin, 3 hours after, and 6 hours after, respectively. Saline served as control. The dose of daunorubicin was 3 mg/kg so and ICRF-187 was administered IP in a 250 mg/kg solution. Twenty-eight mice were used. The results are depicted in data sheet #6 and the mean AUCs are shown graphically in FIG. 5.
100 mg/kg ICRF-187 was injected into the subcutaneous papule produced by injected daunorubicin. This treatment was compared to intralesional saline control, IP saline control, and IP treatment with ICRF-187.
[…]. Seven experiments (n=6, 7, 7, 9, 9, 9, and 9) with 3 mg/kg daunorubicin SC plus saline IP at t=0 and seven experiments (n=6, 7, 7, 9, 9, 8, and 9) with 3 mg/kg daunorubicin SC plus 250 mg/kg ICRF-187 IP at t=0tin two experiments (n=9 and 4) the ICRF-187 doses were 62,5 mg/kg and 375 mg/kg IP, respectively, in two (n=7 and 9) the dose was 125 mg/kg. ICRF-187 250 mg/kg was administered IV in one (n=9).

[4] = Example 3, daunorubicin 3 mg/kg sc + saline IP
[5] = Example 4, daunorubicin 1 mg/kg sc + saline IP
[6] = Example 4, daunorubicin 3 mg/kg sc + saline IP
[7] = Example 5, daunorubicin 1 mg/kg sc + saline IP
[8] = Example 5, daunorubicin 3 mg/kg sc + saline IP
[9] = Example 6, daunorubicin 3 mg/kg sc + saline IP
[10] = Example 7, daunorubicin 3 mg/kg sc + 0.05 ml saline IL
[11] = Example 7, daunorubicin 3 mg/kg sc + saline IP
[12] = daunorubicin 1 mg/kg SC + saline IP
[13] = daunorubicin 3 mg/kg SC + saline IP
[14] = daunorubicin 3 mg/kg SC + saline IP, listed as daunorubicin

COc1cccc2c1C(=O)c1c(O)c3c(c(O)c1C2=O)C[C@@](O)(C(=O)CO)C[C@@H]3O[C@H]1C[C@H](N)[C@H](O)[C@H](C)O1 [Doxorubicin]
wound appearance [1]: a wound appeared

COc1cccc2c1C(=O)c1c(O)c3c(c(O)c1C2=O)C[C@@](O)(C(C)=O)C[C@@H]3O[C@H]1C[C@H](N)[C@H](O)[C@H](C)O1 [Daunorubicin]
wound appearance [2]: a large wound appeared
Mean AUC [3, 4]: 764 mm^2 × days
Mean DWw ± SEM [3, 4]: 29.8 ± 0.5 days
Mean TTWw ± SEM [3, 4]: 4.8 ± 0.4 days
Mean AUC [3, 5]: 365 mm^2 × days
Mean DWw ± SEM [3, 5]: 25.5 ± 1.1 days
Mean TTWw ± SEM [3, 5]: 7.3 ± 1.6 days
Mean AUC [3, 6]: 1240 mm^2 × days
Mean DWw ± SEM [3, 6]: 29.0 ± 0.9 days
Mean TTWw ± SEM [3, 6]: 4.8 ± 0.3 days
Mean AUC [3, 7]: 184 mm^2 × days
Mean DWw ± SEM [3, 7]: 20.5 ± 1.3 days
Mean TTWw ± SEM [3, 7]: 8.5 ± 0.7 days
Mean AUC [3, 8]: 955 mm^2 × days
Mean DWw ± SEM [3, 8]: 25.7 ± 0.7 days
Mean TTWw ± SEM [3, 8]: 5.1 ± 0.2 days
Mean AUC [3, 9]: 1398 mm^2 × days
Mean DWw ± SEM [3, 9]: 27.4 ± 0.5 days
Mean TTWw ± SEM [3, 9]: 5.0 ± 0.4 days
Mean AUC [3, 10]: 1290 mm^2 × days
Mean DWw ± SEM [3, 10]: 24.4 ± 0.6 days
Mean TTWw ± SEM [3, 10]: 6.2 ± 0.3 days
Mean AUC [3, 11]: 1144 mm^2 × days
Mean DWw ± SEM [3, 11]: 26.9 ± 0.7 days
Mean TTWw ± SEM [3, 11]: 6.0 ± 0.3 days
AUC [3, 12]: 263 (± 56) mm^2×days
DW [3, 12]: 22.6 (± 1.1) days
FW [3, 12]: 88%
TTW [3, 12]: 6.9 (± 0.7) days
AUC [3, 13]: 1260 (± 72) mm^2×days
DW [3, 13]: 26.6 (± 0.3) days
FW [3, 13]: 96%
TTW [3, 13]: 5.5 (± 0.2) days
DW [3, 14]: 26.6 days
TTW [3, 14]: 5.5 days

— US6727253B2, “Treatment of accidental extravasation of anthracyclines” (Antianthra APS, priority 1999, dated 2004)
